These results are taken from PMC7749613 (Journal of Cachexia, Sarcopenia and Muscle, 2020).

In one series the target is T1, OATP1B3 (Homo sapiens, UniProt Q9NPD5).
T1 construct: host or cells: HEK293
T1 sequence (Q9NPD5 1-702): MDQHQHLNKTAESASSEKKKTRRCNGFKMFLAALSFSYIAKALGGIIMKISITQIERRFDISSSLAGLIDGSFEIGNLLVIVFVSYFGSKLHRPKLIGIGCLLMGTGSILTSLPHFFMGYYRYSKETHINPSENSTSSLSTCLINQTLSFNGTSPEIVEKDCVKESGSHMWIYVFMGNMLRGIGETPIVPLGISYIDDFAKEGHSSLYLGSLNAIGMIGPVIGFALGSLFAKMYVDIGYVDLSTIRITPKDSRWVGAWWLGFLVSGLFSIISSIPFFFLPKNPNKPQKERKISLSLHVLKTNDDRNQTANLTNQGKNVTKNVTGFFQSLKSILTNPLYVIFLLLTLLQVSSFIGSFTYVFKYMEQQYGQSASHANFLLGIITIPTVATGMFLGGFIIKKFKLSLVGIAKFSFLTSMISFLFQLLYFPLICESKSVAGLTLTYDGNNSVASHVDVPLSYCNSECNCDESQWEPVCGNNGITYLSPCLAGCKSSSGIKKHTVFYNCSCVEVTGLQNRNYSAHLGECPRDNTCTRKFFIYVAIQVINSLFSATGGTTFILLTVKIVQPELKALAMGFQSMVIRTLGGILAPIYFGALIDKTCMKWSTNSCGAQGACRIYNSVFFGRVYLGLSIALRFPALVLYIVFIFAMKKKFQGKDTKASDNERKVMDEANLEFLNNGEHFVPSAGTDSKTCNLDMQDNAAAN
The series can be described thus: Inhibition of prototypical substrate (CCK‐8) uptake by TCMCB07 in HEK293/OATP1B3 cells. It counts as in vitro ADME.

The target of another series is T2, OAT3 (Homo sapiens, UniProt Q8TCC7).
T2 construct: host or cells: HEK293
T2 sequence (Q8TCC7 1-542): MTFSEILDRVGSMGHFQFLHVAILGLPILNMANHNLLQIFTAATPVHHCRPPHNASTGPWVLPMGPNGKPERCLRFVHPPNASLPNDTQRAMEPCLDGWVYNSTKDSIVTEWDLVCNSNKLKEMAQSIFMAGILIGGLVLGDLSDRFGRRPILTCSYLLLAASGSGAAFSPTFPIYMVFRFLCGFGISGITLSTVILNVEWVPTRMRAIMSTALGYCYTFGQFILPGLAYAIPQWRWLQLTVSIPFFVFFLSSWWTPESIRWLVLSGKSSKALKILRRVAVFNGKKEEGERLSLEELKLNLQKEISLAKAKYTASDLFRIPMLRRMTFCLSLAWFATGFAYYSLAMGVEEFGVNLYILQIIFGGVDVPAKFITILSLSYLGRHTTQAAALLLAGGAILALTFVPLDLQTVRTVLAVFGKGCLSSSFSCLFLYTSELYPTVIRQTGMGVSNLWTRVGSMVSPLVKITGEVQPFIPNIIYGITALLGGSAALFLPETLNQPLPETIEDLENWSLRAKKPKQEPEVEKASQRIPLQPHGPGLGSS
The series can be described thus: Inhibition of prototypical substrate (E3S) uptake by TCMCB07 in HEK293/OAT3 cells. The format is in vitro ADME. As to conditions: substrate 1.0 μM [3H]E3S, 5.0 min, up to 1000 μM TCMCB07.

A further series addresses T3, MATE1 (Homo sapiens, UniProt Q96FL8).
T3 sequence (Q96FL8 1-570): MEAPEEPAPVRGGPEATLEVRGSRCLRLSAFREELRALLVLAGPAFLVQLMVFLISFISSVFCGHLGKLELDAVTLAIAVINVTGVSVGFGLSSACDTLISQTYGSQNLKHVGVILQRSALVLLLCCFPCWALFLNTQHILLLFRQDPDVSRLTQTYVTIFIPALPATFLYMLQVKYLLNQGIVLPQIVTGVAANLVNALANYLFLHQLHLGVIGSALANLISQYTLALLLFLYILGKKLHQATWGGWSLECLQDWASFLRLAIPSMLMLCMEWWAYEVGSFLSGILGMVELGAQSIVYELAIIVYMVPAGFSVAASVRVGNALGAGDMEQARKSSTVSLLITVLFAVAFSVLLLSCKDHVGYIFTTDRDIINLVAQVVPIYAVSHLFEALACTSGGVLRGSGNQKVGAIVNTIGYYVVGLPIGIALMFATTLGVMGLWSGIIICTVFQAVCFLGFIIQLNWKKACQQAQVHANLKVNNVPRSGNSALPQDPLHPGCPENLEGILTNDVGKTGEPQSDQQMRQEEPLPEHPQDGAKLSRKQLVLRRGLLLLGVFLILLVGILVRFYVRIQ
It counts as in vitro ADME. Here is the method:
(§1) However, for these studies, a different incubation buffer was used (145 mM NaCl, 3 mM KCl, 1 mM CaCl2, 0.5 mM MgCl2, 5 mM glucose, and 5 mM HEPES, pH 7.4). ^13 Moreover, intracellular acidification was achieved by preincubating the cells in buffer containing 30 mM ammonium chloride for 20 min at 37°C. […] Radioactivity and protein measurements were performed as described previously.

The target of the next series is MATE2‐K (Homo sapiens, UniProt Q86VL8). It counts as in vitro ADME. Here is the method: as §1
Chain of MATE2‐K (Q86VL8 1-566 isoform Q86VL8-3): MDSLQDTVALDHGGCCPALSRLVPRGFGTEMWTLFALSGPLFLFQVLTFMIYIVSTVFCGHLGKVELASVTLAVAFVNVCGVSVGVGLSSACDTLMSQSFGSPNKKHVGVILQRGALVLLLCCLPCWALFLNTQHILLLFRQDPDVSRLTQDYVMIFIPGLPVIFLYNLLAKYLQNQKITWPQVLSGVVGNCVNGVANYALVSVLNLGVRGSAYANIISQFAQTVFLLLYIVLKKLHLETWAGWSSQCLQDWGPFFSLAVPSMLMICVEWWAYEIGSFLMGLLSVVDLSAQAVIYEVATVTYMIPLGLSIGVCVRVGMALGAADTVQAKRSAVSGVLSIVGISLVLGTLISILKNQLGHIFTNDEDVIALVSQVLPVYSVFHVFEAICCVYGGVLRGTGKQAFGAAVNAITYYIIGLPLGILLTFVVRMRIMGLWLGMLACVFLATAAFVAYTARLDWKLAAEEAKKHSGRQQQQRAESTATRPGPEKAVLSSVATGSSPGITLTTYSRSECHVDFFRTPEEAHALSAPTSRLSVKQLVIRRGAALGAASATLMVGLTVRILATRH
The next series has as its target T4, OATP1A2 (Homo sapiens, UniProt P46721).
T4 sequence (P46721 1-670): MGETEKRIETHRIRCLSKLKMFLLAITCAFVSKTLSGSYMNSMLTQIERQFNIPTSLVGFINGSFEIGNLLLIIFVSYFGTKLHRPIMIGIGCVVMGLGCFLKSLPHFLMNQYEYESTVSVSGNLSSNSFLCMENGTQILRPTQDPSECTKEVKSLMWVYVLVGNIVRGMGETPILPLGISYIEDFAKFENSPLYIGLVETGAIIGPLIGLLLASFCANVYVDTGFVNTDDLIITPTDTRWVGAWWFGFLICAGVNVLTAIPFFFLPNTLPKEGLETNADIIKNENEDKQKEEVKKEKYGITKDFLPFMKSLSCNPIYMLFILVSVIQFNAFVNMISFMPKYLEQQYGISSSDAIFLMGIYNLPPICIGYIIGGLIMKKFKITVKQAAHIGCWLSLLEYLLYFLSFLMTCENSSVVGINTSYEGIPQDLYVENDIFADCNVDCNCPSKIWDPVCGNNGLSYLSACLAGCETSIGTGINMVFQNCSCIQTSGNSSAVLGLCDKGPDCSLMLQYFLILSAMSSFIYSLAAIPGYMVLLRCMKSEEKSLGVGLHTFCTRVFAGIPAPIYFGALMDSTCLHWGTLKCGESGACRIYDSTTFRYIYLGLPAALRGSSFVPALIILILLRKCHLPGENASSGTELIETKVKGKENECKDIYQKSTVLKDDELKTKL
The series can be described thus: Cellular uptake in HEK293/OATP1A2‐transfected versus mock cells.

By IC50 is commonly meant the point on the concentration scale where inhibition reaches its midpoint. High values mean lower potency, low ones higher potency.

Bridge positions count the residues as written; N and C are the ends. Square brackets hold non-standard residues; d marks the D form. Peptide text beside a SMILES is read from it. d2Nal = N[C@H](Cc1ccc2ccccc2c1)C(=O)O; Nle = CCCC[C@H](N)C(=O)O

Procedure for OAT3: (§2) Cells were then washed three times × 1.0 mL each with pre‐warmed Hank's Balanced Salt Solution (HBSS) buffer. A 0.5 mL aliquot of uptake buffer [HBSS plus 10 mM 4‐(2‐hydroxyethyl)‐1‐piperazineethanesulfonic acid (HEPES), pH 7.4], containing the radiolabelled prototypical substrate and mannitol, was then incubated for various times up to 60 min to determine the optimal incubation time for subsequent experiments (i.e. time of sampling during linear uptake conditions). At the designated times, 1.0 mL of ice‐cold HBSS buffer was added to stop uptake after which the cells were rinsed three times with 1.0 mL with ice‐cold HBSS. Hyamine hydroxide (0.33 mL) was then added to each well to lyse the cells. The cells were transferred into a scintillation vial and mixed with 6.0 mL of cytosine scintillation cocktail. Radioactivity of the solubilized cells was determined with a dual‐channel liquid scintillation counter (Beckman LS 6000; Beckman Coulter Inc., Fullerton, CA) and the protein quantified by a bicinchoninic acid protein assay kit (Pierce Biotechnology; Rockford, IL).
Procedure for OATP1A2: Mock and transfected cells (250 000 cells/well) were seeded onto BioCoat poly‐D‐lysine 24 well plates (Corning Inc.) and cultured for 2 days as described previously for the other OATPs. […] Cells were incubated for various times over 10 min for the uptake studies. Radioactivity and protein measurements were then performed as described previously.
Cellular uptake and transepithelial transport were calculated as described previously by our laboratory. ^16 , ^17 , ^18 , ^19 [^3H]mannitol or [^14C]mannitol was used to correct the uptake of [^14C]substrate or [^3H]substrate, respectively, due to filter binding and extracellular content, as well as the transepithelial transport of substrate due to paracellular flux.
Uptake kinetics in mock cells was evaluated by a linear term: (3) v=Slope·C+Yint, where Slope is the non‐saturable rate constant and Yint is the y‐intercept of the line.
Procedure for OATP1B3: as §2

For `CCCC[C@H](NC(C)=O)C(=O)N[C@H]1CC(=O)NCCCC[C@@H](C(=O)N[C@@H](C(=O)N2CCC[C@@H]2C(N)=O)C(C)C)NC(=O)[C@H](Cc2c[nH]c3ccccc23)NC(=O)[C@H](CCCN=C(N)N)NC(=O)[C@@H](Cc2ccc3ccccc3c2)NC(=O)[C@@H]2CCCN2C1=O` [TCMCB07, Ac‐Nle‐c[Asp‐Pro‐dNal2′‐Arg‐Trp‐Lys]‐dVal‐dPro‐NH2] (Ac-[Nle]DP[d2Nal]RWK[dV][dP]-NH2; lactam 2-7), the IC50 at OATP1B3 is 307 ± 39 µM; at OAT3, “could not be determined”; at MATE1, 8.7 ± 0.4 µM; on MATE2‐K, 20.7 ± 2.1 µM. In addition, the Slope factor at OATP1B3 (slope factor n of Eqn 1, OATP1B3, substrate CCK‐8) was 1.8 ± 0.3. Besides, the “saturable uptake component (V max/K m) as share of total uptake (V max/K m + K d)” value on OATP1A2 (OATP1A2‐transfected cells, at low concentrations (<< K m)) was “over 90%”. Moreover, the “uptake of TCMCB07 in OATP1A2 cells as compared with mock cells” value at OATP1A2 (at 5 min) is 3–4 times greater.
